We go through 52 compounds from patent US10815238B2, “Antimicrobial compounds and methods of making and using the same” (BIOVERSYS AG, priority 2013, dated 2020).

In this test the test system is Eschericia coli (E. coli) strain ATCC25922. In words: Standard microdilution assay, MIC against E. coli ATCC25922. It counts as cell-based. The settings on record: Escherichia coli; E. coli strain ATCC25922, standard microdilution assay; cutoff 16 micrograms/mL; read-out: MIC E. Coli. The procedure, abridged:
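Scoring as + or − used a 16 micrograms/mL cutoff on minimum inhibitory concentrations. These came from CLSI-standard microdilution, quality-controlled with reference strains tested in the same run.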
On the technique in general: Broth dilution looks for growth in wells or tubes with falling amounts of substance.
The MIC is the smallest concentration in the dilution series that meets the test's criterion for growth inhibition. For `C[C@H](N)CCCc1cc(OC(F)(F)F)c(F)c(-c2cc3cn(-c4ccc([C@H](C)NCC[C@H](CCCN)NC(=N)N)cc4)c(=O)nc3[nH]2)c1` [Compound 284], the MIC was less than 16 µg/mL.
Take `CCOC(=O)N[C@@H](C)CCCc1cc(-c2cn3cc(-c4ccc([C@H](C)NCCCNC(=N)N)cc4)c(=O)nc3[nH]2)cc(C(F)(F)F)c1` [Compound 299]: the MIC was less than 16 µg/mL.
With `C[C@H](N)CCCc1cc(-c2cc3cn(-c4ccc([C@@H](NCCCNC(=N)N)c5cccnc5)cc4)c(=O)nc3[nH]2)cc(C(F)(F)F)c1` [Compound 84] the figure was less than 16 µg/mL.
As for `C[C@H](N)CCCc1cc(Cl)c(F)c(-c2cc3cn(-c4ccc([C@H](C)NCC[C@H](CN)NC(=N)N)cc4)c(=O)nc3[nH]2)c1` [Compound 304], the figure is less than 16 µg/mL; as for `C[C@H](N)CCCc1cc(Cl)c(F)c(-c2cc3cn(-c4cccc(CNCCCNC(=N)N)c4)c(=O)nc3[nH]2)c1` [Compound 90], less than 16 µg/mL.
With `C[C@H](N)CCCc1cc(SC(F)(F)F)cc(-c2cc3cn(-c4ccc([C@@H](NCCCNC(=N)N)c5ccc(O)cc5)cc4)c(=O)nc3[nH]2)c1` [Compound 25] the figure was less than 16 µg/mL; with `C[C@H](N)CCCc1cc(OC(F)(F)F)c(F)c(-c2cc3cn(-c4ccc([C@H](C)NCC[C@H](CCO)NC(=N)N)cc4)c(=O)nc3[nH]2)c1` [Compound 245], less than 16 µg/mL.
As to `C/C=C/C[C@H](CCN[C@@H](C)c1ccc(-n2cc3cc(-c4cc(CCC[C@H](C)N)cc(OC(F)(F)F)c4F)[nH]c3nc2=O)cc1)NC(=N)N` [Compound 292], the MIC was less than 16 µg/mL.
In the case of `COC[C@H](N)CCCc1cc(SC(F)(F)F)cc(-c2cc3cn(-c4ccc([C@H](C)NCCCNC(=N)N)cc4)c(=O)nc3[nH]2)c1` [Compound 130], the MIC was less than 16 µg/mL.
Turning to `C[C@H](N)CCCc1cc(-c2cc3cn(-c4ccc([C@H](C)NCC[C@@H](C)NC(=N)N)cc4)c(=O)nc3[nH]2)cc(C(F)(F)F)c1` [Compound 200], the MIC is less than 16 µg/mL.
Consider `C[C@H](N)CCCc1cc(Cl)c(F)c(-c2cc3cn(-c4ccc([C@@H](NCCCNC(=N)N)C(N)=O)cc4)c(=O)nc3[nH]2)c1` [Compound 32], for which the MIC is less than 16 µg/mL.
In the case of `C[C@H](N)CCCc1cc(-c2cc3cn(-c4ccc([C@H](C)NCCCN(C)C(=N)N)cc4)c(=O)nc3[nH]2)cc(C(F)(F)F)c1` [Compound 211], the MIC is less than 16 µg/mL.
As for `C[C@H](NCCCNC(=N)N)c1ccc(-n2cc3cc(-c4cc(CCC[C@@H](N)CF)cc(Cl)c4F)[nH]c3nc2=O)cc1` [Compound 135], the minimal inhibitory concentration (MIC) is less than 16 µg/mL.
As to `C[C@H](N)CCCc1cc(Cl)c(F)c(-c2cc3cn(-c4ccc(CNCC[C@H](CO)NC(=N)N)cc4)c(=O)nc3[nH]2)c1` [Compound 181], the MIC is less than 16 µg/mL.
Consider `N=C(N)NCCCNCc1ccc(-n2cc3cc(-c4ccc(C(=O)NCc5csc(N6CCOCC6)n5)cc4)[nH]c3nc2=O)cc1` [Compound 49], for which the MIC is less than 16 µg/mL.
For the compound `C[C@H](N)CCCc1cc(SC(F)(F)F)cc(-c2cc3cn(-c4ccc([C@H](Cc5cccnc5)NCCCNC(=N)N)cc4)c(=O)nc3[nH]2)c1` [Compound 57], the MIC is less than 16 µg/mL.
As for `C=CC[C@H](CCN[C@@H](C)c1ccc(-n2cc3cc(-c4cc(CCC[C@H](C)N)cc(Cl)c4F)[nH]c3nc2=O)cc1)NC(=N)N` [Compound 251], the figure is less than 16 µg/mL; as for `C[C@H](N)CCCc1cc(Cl)c(F)c(-c2cn3cc(-c4ccc([C@H](C)NCCCNC(=N)N)cc4)c(=O)nc3[nH]2)c1` [Compound 302], less than 16 µg/mL.
As for `C[C@H](N)CCCc1cc(Cl)c(F)c(-c2cc3cn(-c4ccc([C@H](N)CCCCNC(=N)N)cc4)c(=O)nc3[nH]2)c1` [Compound 92], the figure is less than 16 µg/mL.
Take `COC[C@H](N)CCNCc1ccc(-n2cc3cc(-c4cc(CCC[C@H](C)N)cc(Cl)c4F)[nH]c3nc2=O)cc1` [Compound 178]: the MIC was less than 16 µg/mL.
For the compound `CSC[C@H](N)COCc1cc(SC(F)(F)F)cc(-c2cc3cn(-c4ccc([C@H](C)NCCCNC(=N)N)cc4)c(=O)nc3[nH]2)c1` [Compound 83], the MIC is less than 16 µg/mL.
As to `C[C@H](N)CCCc1cc(Cl)c(F)c(-c2cc3cn(-c4ccc(CNCCC5(N)CNC5)cc4)c(=O)nc3[nH]2)c1` [Compound 189], the MIC was less than 16 µg/mL.
For the compound `C[C@H](NCCCNC(=N)N)c1ccc(-n2cc3cc(-c4cc(CCC[C@@H](N)COC(=O)Nc5ccccc5)cc(Cl)c4F)[nH]c3nc2=O)cc1` [Compound 307], the MIC is less than 16 µg/mL.
As to `C[C@H](NCCCNC(=N)N)c1ccc(-n2cc3cc(-c4cc(CO[C@H](CN)CO)cc(SC(F)(F)F)c4)[nH]c3nc2=O)cc1` [Compound 55], the MIC is less than 16 µg/mL.
For the compound `C[C@H](N)CCCc1cc(Cl)c(F)c(-c2cc3cn(-c4ccc([C@@H](CF)NCCCNC(=N)N)cc4)c(=O)nc3[nH]2)c1` [Compound 95], the MIC was less than 16 µg/mL.
`CSC[C@@H](CCN[C@@H](C)c1ccc(-n2cc3cc(-c4cc(CCC[C@H](C)N)cc(OC(F)(F)F)c4F)[nH]c3nc2=O)cc1)NC(=N)N` [Compound 288]: the MIC is less than 16 µg/mL.
With `C[C@H](N)CCCc1cc(Cl)c(F)c(-c2cc3cn(-c4ccc([C@H](C)NCC[C@H](CCN)NC(=N)N)cc4)c(=O)nc3[nH]2)c1` [Compound 312], the MIC was less than 16 µg/mL.
`COC(=O)C[C@H](CCN[C@@H](C)c1ccc(-n2cc3cc(-c4cc(CCC[C@H](C)N)cc(Cl)c4F)[nH]c3nc2=O)cc1)NC(=N)N` [Compound 280]: the MIC is less than 16 µg/mL.
With `C[C@H](N)CCCc1cc(Cl)c(F)c(-c2cc3cn(-c4ccc([C@H](C)NCC[C@@H](CC#N)NC(=N)N)cc4)c(=O)nc3[nH]2)c1` [Compound 297] the figure was less than 16 µg/mL.
As for `C[C@H](N)CCCc1cc(Cl)c(F)c(-c2cc3cn(-c4ccc([C@H](CC5=CCCN(C)C5)NCCCNC(=N)N)cc4)c(=O)nc3[nH]2)c1` [Compound 105], the MIC was less than 16 µg/mL.
Turning to `C[C@H](N)CCCc1cc(Cl)c(F)c(-c2cc3cn(-c4ccc(CNCCC5(N)CN(C(=N)N)C5)cc4)c(=O)nc3[nH]2)c1` [Compound 190], the MIC is less than 16 µg/mL.
With `C[C@H](N)CCCc1cc(Cl)c(F)c(-c2cc3cn(-c4ccc([C@H](C)NCC[C@H](CCO)NC(=N)N)cc4)c(=O)nc3[nH]2)c1` [Compound 244], the MIC was less than 16 µg/mL.
For `C=CC[C@@H](NCCCNC(=N)N)c1ccc(-n2cc3cc(-c4cc(CCC[C@H](C)N)cc(C(F)(F)F)c4)[nH]c3nc2=O)cc1` [Compound 4], the MIC is less than 16 µg/mL.
`C[C@H](N)CCCc1cc(Cl)c(F)c(-c2cc3cn(-c4ccc([C@H](C)NCC[C@@H](CCCO)NC(=N)N)cc4)c(=O)nc3[nH]2)c1` [Compound 239]: the MIC was less than 16 µg/mL.
With `C[C@H](N)CCCc1cc(SC(F)(F)F)cc(-c2cc3cn(-c4ccc(CNCCC(C)(C)N)cc4)c(=O)nc3[nH]2)c1` [Compound 176], the MIC was less than 16 µg/mL.
With `C=CC[C@@H](N)CCNCc1ccc(-n2cc3cc(-c4cc(CCC[C@H](C)N)cc(Cl)c4F)[nH]c3nc2=O)cc1` [Compound 206] the figure was less than 16 µg/mL; with `C[C@H](N)CCCc1cc(SC(F)(F)F)cc(-c2cc3cn(-c4ccc([C@H](CO)NCCCNC(=N)N)cc4)c(=O)nc3[nH]2)c1` [Compound 104], less than 16 µg/mL; with `C[C@H](N)CCCc1cc(Cl)c(F)c(-c2cc3cn(-c4ccc(CNCc5cccnc5)cc4)c(=O)nc3[nH]2)c1` [Compound 112], more than 16 µg/mL.
As for `C[C@H](N)CCCc1cc(-c2cc3cn(-c4cccc(CCNCCCNC(=N)N)c4)c(=O)nc3[nH]2)cc(C(F)(F)F)c1` [Compound 62], the figure is less than 16 µg/mL.
For the compound `C[C@H](NCCCNC(=N)N)c1ccc(-n2cc3cc(-c4cc(SC(F)(F)F)cc([C@H](O)CC[C@@H](N)CO)c4)[nH]c3nc2=O)cc1` [Compound 110], the MIC was less than 16 µg/mL.
With `COc1ccc(Cn2cc(C[C@H](NCCCNC(=N)N)c3ccc(-n4cc5cc(-c6cc(CCC[C@H](C)N)cc(SC(F)(F)F)c6)[nH]c5nc4=O)cc3)nn2)cc1` [Compound 43] the figure was less than 16 µg/mL.
On to `C[C@H](NCCCNC(=N)N)c1ccc(-n2cc3cc(-c4cc(CCC[C@@H](N)COC(=O)NCc5ccccc5)cc(Cl)c4F)[nH]c3nc2=O)cc1` [Compound 306], for which the MIC was less than 16 µg/mL.
For `C[C@H](N)CCCc1cc(Cl)c(F)c(-c2cc3cn(-c4ccc([C@H](C)NCC[C@@H](Cn5cccn5)NC(=N)N)cc4)c(=O)nc3[nH]2)c1` [Compound 279], the minimal inhibitory concentration (MIC) is less than 16 µg/mL.
As for `C[C@H](N)CCCc1cc(-c2cc3cn(-c4ccc([C@H](CCN)NCCCNC(=N)N)cc4)c(=O)nc3[nH]2)cc(C(F)(F)F)c1` [Compound 18], the MIC was less than 16 µg/mL.
Turning to `N=C(N)NCCCNCc1ccc(-n2cc3cc(-c4ccc(/C=C/C5CN(C(=N)N)C5)cc4)[nH]c3nc2=O)cc1` [Compound 50], the minimal inhibitory concentration (MIC) is less than 16 µg/mL.
As for `C[C@H](N)CCCc1cc(-c2cc3cn(-c4ccc([C@@H](NCCCNC(=N)N)C(N)=O)cc4)c(=O)nc3[nH]2)cc(C(F)(F)F)c1` [Compound 59], the figure is less than 16 µg/mL; as for `C[C@H](N)CCCc1cc(Cl)c(F)c(-c2cc3cn(-c4ccc([C@H](C)NCC[C@@H](Cc5c[nH]nn5)NC(=N)N)cc4)c(=O)nc3[nH]2)c1` [Compound 266], less than 16 µg/mL.
Turning to `C=CCN(CCCN[C@@H](C)c1ccc(-n2cc3cc(-c4cc(CCC[C@H](C)N)cc(Cl)c4F)[nH]c3nc2=O)cc1)C(=N)N` [Compound 212], the MIC was less than 16 µg/mL.
As to `C[C@H](N)CCCc1cc(SC(F)(F)F)cc(-c2cc3cn(-c4ccc(CNCc5ccc(=O)[nH]c5)cc4)c(=O)nc3[nH]2)c1` [Compound 147], the MIC is more than 16 µg/mL.
As to `C[C@H](N)CCCc1cc(-c2cc3cn(-c4ccc([C@@H](CO)NCCCNC(=N)N)cc4)c(=O)nc3[nH]2)cc(C(F)(F)F)c1` [Compound 51], the MIC was less than 16 µg/mL.
As to `C[C@H](NCCCNC(=N)N)c1ccc(-n2cc3cc(-c4cc(CCC[C@H](C)NC(=O)CN)cc(Cl)c4F)[nH]c3nc2=O)cc1` [Compound 72], the MIC was less than 16 µg/mL.
For the compound `C[C@H](N)CCCc1cc(SC(F)(F)F)cc(-c2cc3cn(-c4ccc([C@@H](CO)NCCCNC(=N)N)cc4)c(=O)nc3[nH]2)c1` [Compound 45], the minimum inhibitory concentration (MIC) is less than 16 µg/mL.
